Assay results published in patent US20260193245A1, “CD93 INHIBITORS” (UNIVERSITÄT BERN, priority 2022, published 2026).

How the values were obtained:
CD93 = molecular target: T1, CD93 (Mus musculus, UniProt O89103); experiment: Mouse MLL-AF9 compound screening: colony forming capacity of BL6 or CD93-/- GMPs (leukemia stem cells) from AML mice; assay type: cell-based; conditions: GMPs from AML mice cultured overnight with 10 uM and 1 uM compound; colonies counted after 7 days; FIG. 1 and FIG. 2
T1 construct: endogenous in cells; host or cells: FACS-purified GFP+ lin- Sca-1- c-kit(high) CD34+ Fcγ+ GMPs from MLL-AF9 AML mice (BL6; CD93-/- cells as control)
T1 sequence (O89103 23-644): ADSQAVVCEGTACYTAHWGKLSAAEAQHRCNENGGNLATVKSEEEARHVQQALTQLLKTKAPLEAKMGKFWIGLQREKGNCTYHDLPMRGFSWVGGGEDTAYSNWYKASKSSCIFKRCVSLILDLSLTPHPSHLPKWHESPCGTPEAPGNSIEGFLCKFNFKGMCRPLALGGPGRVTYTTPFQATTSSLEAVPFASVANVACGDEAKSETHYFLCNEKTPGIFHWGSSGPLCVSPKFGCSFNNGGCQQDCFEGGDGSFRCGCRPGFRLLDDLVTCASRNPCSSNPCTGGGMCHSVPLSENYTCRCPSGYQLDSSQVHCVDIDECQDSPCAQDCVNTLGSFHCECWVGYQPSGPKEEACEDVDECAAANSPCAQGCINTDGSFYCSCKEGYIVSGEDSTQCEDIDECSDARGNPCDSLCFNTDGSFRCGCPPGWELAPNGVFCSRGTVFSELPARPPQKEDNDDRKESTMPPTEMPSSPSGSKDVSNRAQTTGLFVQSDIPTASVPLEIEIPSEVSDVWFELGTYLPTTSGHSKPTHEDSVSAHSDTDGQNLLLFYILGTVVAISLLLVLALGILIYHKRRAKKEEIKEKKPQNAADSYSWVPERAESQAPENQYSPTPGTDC
Experimental: The colony formation (% of control) is shown on the Y-axis. […] Compounds showing inhibition of CD93, show no or a very low difference in colony formation of CD93−/− and at the same time a low percentage of colony formation of BL6.
For testing the small molecule compounds targeting CD93 on GMPs (leukemia stem cells) colony forming capacity, 10^3 FACS-purified GFP+lin-Sca-1-c-kithighCD34+Fcγ+ GMPs from BL6 or CD93−/− transduced AML mice were cultured overnight in 96-well U-bottom plates (NeoLab) in RPMI medium supplemented with 10% FCS, 1% L-glutamine, 1% penicillin/streptomycin, 100 ng/ml recombinant mouse (rm)-SCF (Miltenyi) and 20 ng/ml rm-TPO (ProSpec), in the presence or absence of 10 uM and 1 uM compound in technical triplicates. Compounds were dissolved in DMSO. The next day, cells were plated in semi-solid methylcellulose in the absence of any compound. Number of colonies was assessed by inverted light microscopy after 7 days.
In this assay, the semi-solid Media used was 1.27% Methylcellulose (1500cp, Sigma), supplemented with 15% FCS, 20% BIT (50 mg/ml BSA in IMDM, 1.44 U/ml rh-insulin [Actrapid; Novo Nordisk], and 250 ng/ml human holo transferrin [Prospec]), 100 μM 2-mercaptoethanol, 100 U/ml penicillin, 100 μg/ml streptomycin, 2 mM L-glutamine, and 50 ng/ml rm-SCF (Miltneyi), 10 ng/ml rm-IL-3 (Miltenyi), 10 ng/ml rm-IL-6 (Miltenyi), and 50 ng/ml rm-Flt3-ligand (ProSpec).

BL6 leukemia stem cells = conditions: murine CML model, BL6 and CD93-/- mice; Riether et al. 2021; cited from earlier work
[1] = test system: human CML leukemia stem cells; conditions: Riether et al. 2021; cited from earlier work

Row | Structure (SMILES) | inhibition profile of CD93 (colony formation, % of control, BL6 vs CD93-/- GMPs) (CD93) | colony formation of BL6 leukemia stem cells (BL6 leukemia stem cells) | leukemia stem cell numbers and function [1]
1 | O=C(c1csc(-c2ccccc2)n1)N1CCCN(C2CC2)CC1 [Compound 21560] | good inhibition profiles of CD93 |  | 
2 | O=C(c1nc2ccccc2s1)N1CCCN(C2CC2)CC1 [Compound 22393] | good inhibition profiles of CD93 |  | 
3 | COc1ccccc1-c1nc(C(=O)N2CCCN(C3CC3)CC2)cs1 [Compound 22394] | good inhibition profiles of CD93 |  | 
4 | CCN(CC)CCNC(=O)c1cc(Cl)c(N)cc1OC [metoclopramide] |  | reduced colony formation of BL6 leukemia stem cells | diminished leukemia stem cell numbers and function

Continued, in another order:

Row | inhibition profile of CD93 (colony formation, % of control, BL6 vs CD93-/- GMPs) (CD93) | Structure (SMILES) | colony formation of BL6 leukemia stem cells (BL6 leukemia stem cells) | leukemia stem cell numbers and function [1]
5 | good inhibition profiles of CD93 | O=C(c1ccn(-c2ccccc2)n1)N1CCCN(C2CC2)CC1 [Compound 22742] |  | 
6 | good inhibition profiles of CD93 | CN(C)CCN(C)C(=O)c1csc(-c2ccccc2)n1 [Compound 22815] |  | 
7 | good inhibition profiles of CD93 | O=C(c1csc(-c2ccccc2)n1)N1CCN2CCC1C2 (centres unmarked) [Compound 22817] |  | 
